Data on 19 compounds can be found in patent US7947688B2, “N-[3-(3-substituted-pyrazolo[1,5-a]pyrimidin-7-yl)phenyl]-sulfonamides, and compositions, and methods related thereto” (Ferrer Internacional, S.A., priority 2003, dated 2011).

The test system of one assay is male CD1 mice. The assay is described as follows: Predictive sedation-hypnosis test in mice (motor activity, crossings). In kind it is in vivo. The following applies: single equimolecular intraperitoneal dose, crossings over 30 min after dosing (first 5 min discarded) versus control. How it is done:
• In vivo determination of predictive sedative-hypnotic action.
The in vivo effects of these compounds were assessed by a predictive sedation-hypnosis test in mice (D. J. Sanger et al., Eur. J. Pharmacol., 313, 35-42, 1996; and G. Griebel et al., Psychopharmacology, 146, 205-213, 1999). Groups of 5-8 male CD1 mice, weighing 22-26 g at the time of test, were used. The test compounds were administered in single equimolecular intraperitoneal doses, suspended in 0.25% agar with one drop of Tween in a volume of 10 ml/kg. Control animals received the vehicle alone. Using an Actisystem DAS16 (Panlab, S. L., Spain) the crossings (number of counts) were recorded for each mouse at 5-min intervals during a period of 30 minutes after dosing. The inhibition percentage of crossings of treated animals versus control animals (the first 5 min were discarded) was calculated.

Another assay concerns the target α2-GABAA receptor (Rattus norvegicus, UniProt P18508+P23576). The assay is described as follows: Ligand-binding assay, radiolabeled flumazenil competition, rat spinal cord membranes. The following applies: for inhibition at 10 µM: read-out: % Inhibition (10^−5 M), affinity for α2-GABAA receptor; for inhibition at 0.1 µM: read-out: % Inhibition (10^−7 M), affinity for α2-GABAA receptor. As for the experimental part: Determination of the affinity of test compounds for α1- and α2-GABAA receptor.
Male Sprague-Dawley rats weighing 200-250 g at the time of experiment were used. After decapitation of the animal, the cerebellum (tissue that mostly contains α1-GABAA receptor) and spinal cord (tissue that mostly contains α2-GABAA receptor) were removed. The membranes were prepared according to the method by J. Lameh et al. (Prog. Neuro-Psychopharmacol. Biol. Psychiatry, 24, 979-991, 2000). Once the tissues weighed, they were suspended in 50 mM Tris.HCl (pH 7.7), 1:40 (v/v), homogenized and then centrifuged at 20000 g for 10 min at 7° C. The resulting pellet was resuspended under the same conditions and centrifuged again. The pellet was finally resuspended on a minimum volume and kept at −80° C. overnight. On the next day, the process was repeated until the final pellet was resuspended at a ratio of 1:10 (v/v).
Affinity was determined by competitive tests using radiolabeled flumazenil as ligand. The tests were performed according to the methods described by S. Arbilla et al. (Eur. J. Pharmacol., 130, 257-263, 1986); and Y. Wu et al. (Eur. J. Pharmacol., 278, 125-132, 1995). The membranes containing the study receptors, flumazenil (radiolabeling at a final concentration of 1 nM) and ascending concentrations of test compounds (in a total volume of 500 μl in […] [ph 7.4] Tris.HCl buffer) were incubated. Simultaneously, the membranes were only incubated with the radiolabeled flumazenil (total binding, 100%) and in the presence of an elevated concentration of unradiolabeled flumazenil (non-specific binding, % estimation of radiolabeled ligand). The reactions started on adding the radiolabeled ligand followed by incubation for 60 minutes at 0° C. At the end of the incubation period, the tubes were filtered using a Brandel Mod. M-48R harvester and then washed three times with cold test buffer. The harvester was fitted with a GF/B filter that retained the membranes containing the receptors and the radiolabeled ligand which had been bound to the receptors. Then the filters were removed and left till dry. Once dried, the filters were cut, placed in vials with scintillation liquid and left under stirring overnight. The next day the filters were counted using a Packard Mod. Tricarb scintillation counter.
X: amount of bound ligand for every concentration of compound.
T: total binding, maximum amount bound to the radiolabeled ligand.
N: non-specific binding, amount of radiolabeled ligand bound in a non-specific way irrespective of the receptor used.
Every concentrations of compound were tested in duplicate and their mean values were used to determine the experimental values of % specific binding versus the concentration of compound. […] Inhibition constants (Ki) were calculated from the IC50 values according to Cheng-Prusoff's formula (Y. Cheng y W. H. Prusoff, Biochem. Pharmacol., 22(23), 3099-3108, 1973).

A word on the inhibition: it is the drop in the measured response relative to a control, in per cent. Regarding `CCN(c1cccc(-c2ccnc3c(C(=O)c4ccccn4)cnn23)c1)S(C)(=O)=O` [Example 40, N-ethyl-N-{3-[3-(pyridin-2-carbonyl)-pyrazolo[1,5-a]pyrimidin-7-yl]-phenyl}-methanesulfonamide], in the assay with male CD1 mice, the “% Motor Activity Inhibition” value was 94.32%. Also, on α2-GABAA receptor, the inhibition at 10 µM was 99.5% and the inhibition at 0.1 µM was 47.3%.

Take `CCN(c1cccc(-c2ccnc3c(C(=O)c4ccncc4)cnn23)c1)S(C)(=O)=O` [Example 46, N-ethyl-N-{3-[3-(pyridin-4-carbonyl)-pyrazolo[1,5-a]pyrimidin-7-yl]-phenyl}-methanesulfonamide]: the “% Motor Activity Inhibition” value in the assay on male CD1 mice was 93.98%. Moreover, on α2-GABAA receptor, the inhibition at 10 µM was found to be 97.6% and the inhibition at 0.1 µM turned out to be 11.9%.

`CN(c1cccc(-c2ccnc3c(C(=O)c4ccc(F)cc4)cnn23)c1)S(C)(=O)=O` [Example 51, N-methyl-N-{3-[3-(fluorobenzene-4-carbonyl)-pyrazolo[1,5-a]pyrimidin-7-yl]-phenyl}-methanesulfonamide]: in the assay with male CD1 mice, the “% Motor Activity Inhibition” value is reported as 90.04%. For the same compound, on α2-GABAA receptor, the inhibition at 10 µM is 94.7% and the inhibition at 0.1 µM was 16.8%.

`CCN(c1cccc(-c2ccnc3c(C(=O)c4ccc(F)cc4)cnn23)c1)S(C)(=O)=O` [Example 52, N-ethyl-N-{3-[3-(fluorobenzene-4-carbonyl)-pyrazolo[1,5-a]pyrimidin-7-yl]-phenyl}-methanesulfonamide]: the “% Motor Activity Inhibition” value in the assay with male CD1 mice is listed as 92.83%. Also, at α2-GABAA receptor, the inhibition at 10 µM came out at 61.2% and the inhibition at 0.1 µM is 0%.

`CCS(=O)(=O)N(C)c1cccc(-c2ccnc3c(C(=O)c4ccc(F)cc4)cnn23)c1` [Example 53, N-methyl-N-{3-[3-(fluorobenzene-4-carbonyl)-pyrazolo[1,5-a]pyrimidin-7-yl]-phenyl}-ethanesulfonamide]: the “% Motor Activity Inhibition” value with male CD1 mice was 94.89%. Also, on α2-GABAA receptor, the inhibition at 10 µM came out at 89.8% and the inhibition at 0.1 µM came out at 1%.

Consider `CCN(c1cccc(-c2ccnc3c(C(=O)c4ccc(OC)cc4)cnn23)c1)S(C)(=O)=O` [Example 58, N-ethyl-N-{3-[3-(4-methoxybenzoyl)-pyrazolo[1,5-a]pyrimidin-7-yl]-phenyl}-methanesulfonamide], for which, in the assay with male CD1 mice, the “% Motor Activity Inhibition” value is listed as 93.31%. For the same compound, at α2-GABAA receptor, the inhibition at 10 µM is 93.8% and the inhibition at 0.1 µM turned out to be 24%.

`Cc1ccc(C(=O)c2cnn3c(-c4cccc(N(C)S(C)(=O)=O)c4)ccnc23)cc1` [Example 63, N-methyl-N-{3-[3-(4-methylbenzoyl)-pyrazolo[1,5-a]pyrimidin-7-yl]-phenyl}-methanesulfonamide]: the “% Motor Activity Inhibition” value in the assay with male CD1 mice was 95.32%. For the same compound, at α2-GABAA receptor, the inhibition at 10 µM came to 91.3% and the inhibition at 0.1 µM was 0%.

With `CCN(c1cccc(-c2ccnc3c(C(=O)c4ccc(C)cc4)cnn23)c1)S(C)(=O)=O` [Example 64, N-ethyl-N-{3-[3-(4-methylbenzoyl)-pyrazolo[1,5-a]pyrimidin-7-yl]-phenyl}-methanesulfonamide], the “% Motor Activity Inhibition” value in the assay with male CD1 mice is 90.32%. In addition, at α2-GABAA receptor, the inhibition at 10 µM was determined as 61.5% and the inhibition at 0.1 µM turned out to be 20.9%.

As for `C#CCN(c1cccc(-c2ccnc3c(C(=O)c4ccc(C)cc4)cnn23)c1)S(C)(=O)=O` [Example 68, N-2-propynyl-N-{3-[3-(4-methylbenzoyl)-pyrazolo[1,5-a]pyrimidin-7-yl]-phenyl}-methanesulfonamide], in the assay on male CD1 mice, the “% Motor Activity Inhibition” value is recorded as 87.78%. For the same compound, at α2-GABAA receptor, the inhibition at 10 µM was 92.7% and the inhibition at 0.1 µM amounted to 31.6%.

As to `CN(c1cccc(-c2ccnc3c(C(=O)c4ccccc4)cnn23)c1)S(C)(=O)=O` [Example 69, N-methyl-N-{3-[3-(benzoyl)-pyrazolo[1,5-a]pyrimidin-7-yl]-phenyl}-methanesulfonamide], the “% Motor Activity Inhibition” value in the assay with male CD1 mice was 96.90%. In addition, on α2-GABAA receptor, the inhibition at 10 µM worked out at 99% and the inhibition at 0.1 µM worked out at 36.7%.

Turning to `CCN(c1cccc(-c2ccnc3c(C(=O)c4ccccc4)cnn23)c1)S(C)(=O)=O` [Example 70, N-ethyl-N-{3-[3-(benzoyl)-pyrazolo[1,5-a]pyrimidin-7-yl]-phenyl}-methanesulfonamide], the “% Motor Activity Inhibition” value in the assay with male CD1 mice is listed as 94.54%. Moreover, at α2-GABAA receptor, the inhibition at 10 µM worked out at 99.9% and the inhibition at 0.1 µM was determined as 63.4%.

For `CCN(c1cccc(-c2ccnc3c(C(=O)c4ccccc4)cnn23)c1)S(=O)(=O)CC` [Example 72, N-ethyl-N-{3-[3-(benzoyl)-pyrazolo[1,5-a]pyrimidin-7-yl]-phenyl}-ethanesulfonamide], the “% Motor Activity Inhibition” value in the assay with male CD1 mice is reported as 93.78%. In addition, at α2-GABAA receptor, the inhibition at 10 µM turned out to be 98.6% and the inhibition at 0.1 µM came to 44.9%.

With `CN(c1cccc(-c2ccnc3c(C(=O)c4cccs4)cnn23)c1)S(=O)(=O)CC(F)(F)F` [Example 76, N-methyl-N-{3-[3-(thiophene-2-carbonyl)-pyrazolo[1,5-a]pyrimidin-7-yl]-phenyl}-2,2,2-trifluoroethane-sulfonamide], the “% Motor Activity Inhibition” value with male CD1 mice is 78.36%. On α2-GABAA receptor, the inhibition at 10 µM is 41.7% and the inhibition at 0.1 µM was 0%.

Take `CN(c1cccc(-c2ccnc3c(C(=O)c4cccs4)cnn23)c1)S(=O)(=O)c1ccccc1Cl` [Example 77, N-methyl-N-{3-[3-(thiophene-2-carbonyl)-pyrazolo[1,5-a]pyrimidin-7-yl]-phenyl}-2-chlorobenzene-sulfonamide]: the “% Motor Activity Inhibition” value in the assay on male CD1 mice is 70.12%. For the same compound, at α2-GABAA receptor, the inhibition at 10 µM stood at 88.5% and the inhibition at 0.1 µM was 13.8%.

As for `CN(c1cccc(-c2ccnc3c(C(=O)c4cccs4)cnn23)c1)S(=O)(=O)c1cccc(Cl)c1` [Example 78, N-methyl-N-{3-[3-(thiophene-2-carbonyl)-pyrazolo[1,5-a]pyrimidin-7-yl]-phenyl}-3-chlorobenzenesulfonamide], the “% Motor Activity Inhibition” value with male CD1 mice is 36.12%. Further, on α2-GABAA receptor, the inhibition at 10 µM was 36.2% and the inhibition at 0.1 µM is 0%.

For `CN(c1cccc(-c2ccnc3c(C(=O)c4cccs4)cnn23)c1)S(=O)(=O)c1ccc(Cl)cc1` [Example 79, N-methyl-N-{3-[3-(thiophene-2-carbonyl)-pyrazolo[1,5-a]pyrimidin-7-yl]-phenyl}-4-chlorobenzenesulfonamide], in the assay with male CD1 mice, the “% Motor Activity Inhibition” value is 51.50%. In addition, on α2-GABAA receptor, the inhibition at 10 µM stood at 52.9% and the inhibition at 0.1 µM was 0%.

As for `CN(c1cccc(-c2ccnc3c(C(=O)c4cccs4)cnn23)c1)S(=O)(=O)c1ccccc1C#N` [Example 82, N-methyl-N-{3-[3-(thiophene-2-carbonyl)-pyrazolo[1,5-a]pyrimidin-7-yl]-phenyl}-2-cyanobenzene-sulfonamide], the “% Motor Activity Inhibition” value with male CD1 mice was 39.87%. On α2-GABAA receptor, the inhibition at 10 µM was 31.8% and the inhibition at 0.1 µM amounted to 0%.

As for `CN(c1cccc(-c2ccnc3c(C(=O)c4cccs4)cnn23)c1)S(=O)(=O)c1cccc(C#N)c1` [Example 83, N-methyl-N-{3-[3-(thiophene-2-carbonyl)-pyrazolo[1,5-a]pyrimidin-7-yl]-phenyl}-3-cyanobenzene-sulfonamide], in the assay with male CD1 mice, the “% Motor Activity Inhibition” value is given as 53.38%. In addition, at α2-GABAA receptor, the inhibition at 10 µM stood at 94.4% and the inhibition at 0.1 µM came to 39.1%.

In the case of `CN(c1cccc(-c2ccnc3c(C(=O)c4cccs4)cnn23)c1)S(=O)(=O)c1ccc(C#N)cc1` [Example 84, N-methyl-N-{3-[3-(thiophene-2-carbonyl)-pyrazolo[1,5-a]pyrimidin-7-yl]-phenyl}-4-cyanobenzene-sulfonamide], in the assay with male CD1 mice, the “% Motor Activity Inhibition” value is 68.98%. On α2-GABAA receptor, the inhibition at 10 µM turned out to be 89.5% and the inhibition at 0.1 µM was 0%.
